Experimental data reported in PMC3399817 (PLoS ONE, 2012).

Assays:
[1] = target: T1, AMPK-alpha2 (Homo sapiens, UniProt P54646); assay: KINOMEscan; assay type: binding; details: AMPK-alpha2, 1 uM
T1 construct: purchased Ambit KINOMEscan (DiscoverX)
Description: (§1) First, we used Ambit's KINOMEscan™ technology to identify those kinases that are inhibited for substrate binding by the compounds, all assayed at 1 μM. Second, we used Invitrogen's SelectScreen® Biochemical Kinase Profiling Service to determine the in vitro IC50s for the compounds against specific kinases.

[2] = target: T2, BMX (Homo sapiens, UniProt P51813); assay: KINOMEscan; assay type: binding; details: 1 uM
T2 construct: purchased Ambit KINOMEscan (DiscoverX)
Description: as §1

[3] = target: T3, CDKL3 (Homo sapiens, UniProt Q8IVW4); assay: KINOMEscan; assay type: binding; details: CDKL3, 1 uM
T3 construct: purchased Ambit KINOMEscan (DiscoverX)
Description: as §1

[4] = target: T4, CSF1R (Homo sapiens, UniProt P07333); assay: KINOMEscan; assay type: binding; details: 1 uM
T4 construct: purchased Ambit KINOMEscan (DiscoverX)
Description: as §1

[5] = target: T5, DAPK2 (Homo sapiens, UniProt Q9UIK4); assay: KINOMEscan; assay type: binding; details: DAPK2, 1 uM
T5 construct: purchased Ambit KINOMEscan (DiscoverX)
Description: as §1

[6] = target: T6, FGFR1 (Homo sapiens, UniProt P11362); assay: KINOMEscan; assay type: binding; details: FGFR1, 1 uM
T6 construct: purchased Ambit KINOMEscan (DiscoverX)
Description: as §1

[7] = target: T7, FGFR2 (Homo sapiens, UniProt P21802); assay: KINOMEscan; assay type: binding; details: FGFR2, 1 uM
T7 construct: purchased Ambit KINOMEscan (DiscoverX)
Description: as §1

[8] = target: T8, LATS1 (Homo sapiens, UniProt O95835); assay: KINOMEscan; assay type: binding; details: LATS1, 1 uM
T8 construct: purchased Ambit KINOMEscan (DiscoverX)
Description: as §1

[9] = target: T9, LIMK2 (Homo sapiens, UniProt P53671); assay: KINOMEscan; assay type: binding; details: LIMK2, 1 uM
T9 construct: purchased Ambit KINOMEscan (DiscoverX)
Description: as §1

[10] = target: T10, MAP3K1 (Homo sapiens, UniProt Q13233); assay: KINOMEscan; assay type: binding; details: MAP3K1, 1 uM
T10 construct: purchased Ambit KINOMEscan (DiscoverX)
Description: as §1

[11] = target: T11, MAP3K2 (Homo sapiens, UniProt Q9Y2U5); assay: KINOMEscan; assay type: binding; details: MAP3K2, 1 uM
T11 construct: purchased Ambit KINOMEscan (DiscoverX)
Description: as §1

[12] = target: T12, MST2 (Homo sapiens, UniProt Q13188); assay: KINOMEscan; assay type: binding; details: MST2, 1 uM
T12 construct: purchased Ambit KINOMEscan (DiscoverX)
Description: as §1

[13] = target: T13, MYO3A (Homo sapiens, UniProt Q8NEV4); assay: KINOMEscan; assay type: binding; details: 1 uM
T13 construct: purchased Ambit KINOMEscan (DiscoverX)
Description: as §1

[14] = target: T14, NEK6 (Homo sapiens, UniProt Q9HC98); assay: KINOMEscan; assay type: binding; details: NEK6, 1 uM
T14 construct: purchased Ambit KINOMEscan (DiscoverX)
Description: as §1

[15] = target: T15, NEK9 (Homo sapiens, UniProt Q8TD19); assay: KINOMEscan; assay type: binding; details: NEK9, 1 uM
T15 construct: purchased Ambit KINOMEscan (DiscoverX)
Description: as §1

[16] = target: T16, OSR1 (Homo sapiens, UniProt O95747); assay: KINOMEscan; assay type: binding; details: OSR1, 1 uM
T16 construct: purchased Ambit KINOMEscan (DiscoverX)
Description: as §1

[17] = target: T17, PAK2 (Homo sapiens, UniProt Q13177); assay: KINOMEscan; assay type: binding; details: PAK2, 1 uM
T17 construct: purchased Ambit KINOMEscan (DiscoverX)
Description: as §1

[18] = target: T18, PHKG1 (Homo sapiens, UniProt Q16816); assay: KINOMEscan; assay type: binding; details: PHKG1, 1 uM
T18 construct: purchased Ambit KINOMEscan (DiscoverX)
Description: as §1

[19] = target: T19, PIK3CA(Q546K) (Homo sapiens, UniProt P42336, Q546K); assay: KINOMEscan; assay type: binding; details: 1 uM
T19 construct: purchased Ambit KINOMEscan (DiscoverX)
Description: as §1

[20] = target: T20, PIM3 (Homo sapiens, UniProt Q86V86); assay: KINOMEscan; assay type: binding; details: PIM3, 1 uM
T20 construct: purchased Ambit KINOMEscan (DiscoverX)
Description: as §1

[21] = target: T21, PLK1 (Homo sapiens, UniProt P53350); assay: KINOMEscan; assay type: binding; details: PLK1, 1 uM
T21 construct: purchased Ambit KINOMEscan (DiscoverX)
Description: as §1

[22] = target: T22, PLK4 (Homo sapiens, UniProt O00444); assay: KINOMEscan; assay type: binding; details: PLK4, 1 uM
T22 construct: purchased Ambit KINOMEscan (DiscoverX)
Description: as §1

[23] = target: T23, PRKCH (Homo sapiens, UniProt P24723); assay: KINOMEscan; assay type: binding; details: 1 uM
T23 construct: purchased Ambit KINOMEscan (DiscoverX)
Description: as §1

[24] = target: T24, PRKCQ (Homo sapiens, UniProt Q04759); assay: KINOMEscan; assay type: binding; details: 1 uM
T24 construct: purchased Ambit KINOMEscan (DiscoverX)
Description: as §1

[25] = target: T25, ROS1 (Homo sapiens, UniProt P08922); assay: KINOMEscan; assay type: binding; details: ROS1, 1 uM
T25 construct: purchased Ambit KINOMEscan (DiscoverX)
Description: as §1

[26] = target: T26, SRMS (Homo sapiens, UniProt Q9H3Y6); assay: KINOMEscan; assay type: binding; details: 1 uM
T26 construct: purchased Ambit KINOMEscan (DiscoverX)
Description: as §1

[27] = target: T27, TBK1 (Homo sapiens, UniProt Q9UHD2); assay: KINOMEscan; assay type: binding; details: TBK1, 1 uM
T27 construct: purchased Ambit KINOMEscan (DiscoverX)
Description: as §1

[28] = target: T28, TESK1 (Homo sapiens, UniProt Q15569); assay: KINOMEscan; assay type: binding; details: TESK1, 1 uM
T28 construct: purchased Ambit KINOMEscan (DiscoverX)
Description: as §1

[29] = target: T29, TGFBR1 (Homo sapiens, UniProt P36897); assay: KINOMEscan; assay type: binding; details: TGFBR1, 1 uM
T29 construct: purchased Ambit KINOMEscan (DiscoverX)
Description: as §1

[30] = target: T30, VEGFR2 (Homo sapiens, UniProt P35968); assay: KINOMEscan; assay type: binding; details: VEGFR2, 1 uM
T30 construct: purchased Ambit KINOMEscan (DiscoverX)
Description: as §1

[31] = target: T31, WEE2 (Homo sapiens, UniProt P0C1S8); assay: KINOMEscan; assay type: binding; details: WEE2, 1 uM
T31 construct: purchased Ambit KINOMEscan (DiscoverX)
Description: as §1

[32] = target: T32, PRP4 (Homo sapiens, UniProt Q13523); assay: KINOMEscan; assay type: binding; details: PRP4, 1 uM
T32 construct: purchased Ambit KINOMEscan (DiscoverX)

[33] = system: HKe-3 (K-RAS^−/+); assay: Cell viability (Syto60); assay type: cell-based; details: 72 hours; for cooperation with / sensitization to AZ-628 (cell viability): K-RAS wild-type cells (HKe-3), 1 µM AZ-628
Description: All colon cancer cell lines were maintained in DMEM supplemented with penicillin (100 units/mL), streptomycin (100 μg/mL), and 10% fetal bovine serum (FBS). The rectal cancer cell line (Car1) was maintained in DMEM/F12 supplemented with penicillin (100 units/mL)/streptomycin (50 μg/mL), and 5% FBS. […] The target sequences for knockdowns can be found in Table S2. In drug treatment experiments, cells were plated for 24 hours prior to exposure to drug. AZ-628 was obtained from AstraZeneca. CI-1040 was obtained from Pfizer. R406 was synthesized in the Gray laboratory. BAY61-3606 and IKK VII were purchased from EMD Biosciences. BAY derivatives were synthesized for this study.
Cell cycle analysis was performed via FACS-based propidium iodide quantification, using standard methods. To measure cell viability, cells were grown in 96-well plates in the presence or absence of drug for 72 hours, fixed with 4% paraformaldehyde, and then stained with Syto60 (Invitrogen). Plates were imaged and quantified using the LiCor Odyssey system (LiCor).

[34] = system: panel of 402 kinases; assay: KINOMEscan panel; assay type: binding; details: 1 μM
Description: as §1

T29 sequence (P36897 34-503): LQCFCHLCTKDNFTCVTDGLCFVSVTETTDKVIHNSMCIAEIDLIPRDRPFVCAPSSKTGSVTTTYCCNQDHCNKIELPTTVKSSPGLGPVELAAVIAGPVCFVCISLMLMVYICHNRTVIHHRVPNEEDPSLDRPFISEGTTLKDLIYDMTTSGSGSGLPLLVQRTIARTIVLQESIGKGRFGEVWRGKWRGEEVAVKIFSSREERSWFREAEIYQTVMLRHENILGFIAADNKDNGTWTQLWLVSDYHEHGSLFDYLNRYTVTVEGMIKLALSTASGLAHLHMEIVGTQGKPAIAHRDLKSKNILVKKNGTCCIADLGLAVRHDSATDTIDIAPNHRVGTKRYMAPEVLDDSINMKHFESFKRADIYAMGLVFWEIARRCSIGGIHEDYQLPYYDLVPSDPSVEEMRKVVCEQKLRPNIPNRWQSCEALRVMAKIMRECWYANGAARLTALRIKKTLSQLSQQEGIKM
T6 sequence (P11362 22-822): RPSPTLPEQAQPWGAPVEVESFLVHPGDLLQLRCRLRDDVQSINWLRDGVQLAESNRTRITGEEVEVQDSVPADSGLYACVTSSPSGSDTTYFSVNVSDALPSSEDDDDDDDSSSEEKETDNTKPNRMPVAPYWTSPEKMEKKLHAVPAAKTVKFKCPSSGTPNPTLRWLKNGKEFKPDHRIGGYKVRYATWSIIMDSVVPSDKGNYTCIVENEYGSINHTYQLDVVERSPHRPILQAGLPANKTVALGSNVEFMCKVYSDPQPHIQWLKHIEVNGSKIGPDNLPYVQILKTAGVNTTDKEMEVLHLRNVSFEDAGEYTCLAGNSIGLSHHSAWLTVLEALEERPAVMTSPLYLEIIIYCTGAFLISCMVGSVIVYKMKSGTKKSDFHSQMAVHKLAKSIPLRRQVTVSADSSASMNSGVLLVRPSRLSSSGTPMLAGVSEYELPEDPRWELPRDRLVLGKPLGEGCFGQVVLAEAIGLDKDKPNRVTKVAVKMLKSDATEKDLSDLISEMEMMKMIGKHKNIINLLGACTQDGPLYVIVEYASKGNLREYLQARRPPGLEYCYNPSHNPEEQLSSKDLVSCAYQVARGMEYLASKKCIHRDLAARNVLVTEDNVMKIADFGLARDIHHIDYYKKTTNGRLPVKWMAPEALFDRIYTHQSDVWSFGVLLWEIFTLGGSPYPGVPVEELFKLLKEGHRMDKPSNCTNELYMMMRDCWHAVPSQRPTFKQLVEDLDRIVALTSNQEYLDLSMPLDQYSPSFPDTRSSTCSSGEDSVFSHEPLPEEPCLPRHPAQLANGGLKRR
T10 sequence (Q13233 whole entry): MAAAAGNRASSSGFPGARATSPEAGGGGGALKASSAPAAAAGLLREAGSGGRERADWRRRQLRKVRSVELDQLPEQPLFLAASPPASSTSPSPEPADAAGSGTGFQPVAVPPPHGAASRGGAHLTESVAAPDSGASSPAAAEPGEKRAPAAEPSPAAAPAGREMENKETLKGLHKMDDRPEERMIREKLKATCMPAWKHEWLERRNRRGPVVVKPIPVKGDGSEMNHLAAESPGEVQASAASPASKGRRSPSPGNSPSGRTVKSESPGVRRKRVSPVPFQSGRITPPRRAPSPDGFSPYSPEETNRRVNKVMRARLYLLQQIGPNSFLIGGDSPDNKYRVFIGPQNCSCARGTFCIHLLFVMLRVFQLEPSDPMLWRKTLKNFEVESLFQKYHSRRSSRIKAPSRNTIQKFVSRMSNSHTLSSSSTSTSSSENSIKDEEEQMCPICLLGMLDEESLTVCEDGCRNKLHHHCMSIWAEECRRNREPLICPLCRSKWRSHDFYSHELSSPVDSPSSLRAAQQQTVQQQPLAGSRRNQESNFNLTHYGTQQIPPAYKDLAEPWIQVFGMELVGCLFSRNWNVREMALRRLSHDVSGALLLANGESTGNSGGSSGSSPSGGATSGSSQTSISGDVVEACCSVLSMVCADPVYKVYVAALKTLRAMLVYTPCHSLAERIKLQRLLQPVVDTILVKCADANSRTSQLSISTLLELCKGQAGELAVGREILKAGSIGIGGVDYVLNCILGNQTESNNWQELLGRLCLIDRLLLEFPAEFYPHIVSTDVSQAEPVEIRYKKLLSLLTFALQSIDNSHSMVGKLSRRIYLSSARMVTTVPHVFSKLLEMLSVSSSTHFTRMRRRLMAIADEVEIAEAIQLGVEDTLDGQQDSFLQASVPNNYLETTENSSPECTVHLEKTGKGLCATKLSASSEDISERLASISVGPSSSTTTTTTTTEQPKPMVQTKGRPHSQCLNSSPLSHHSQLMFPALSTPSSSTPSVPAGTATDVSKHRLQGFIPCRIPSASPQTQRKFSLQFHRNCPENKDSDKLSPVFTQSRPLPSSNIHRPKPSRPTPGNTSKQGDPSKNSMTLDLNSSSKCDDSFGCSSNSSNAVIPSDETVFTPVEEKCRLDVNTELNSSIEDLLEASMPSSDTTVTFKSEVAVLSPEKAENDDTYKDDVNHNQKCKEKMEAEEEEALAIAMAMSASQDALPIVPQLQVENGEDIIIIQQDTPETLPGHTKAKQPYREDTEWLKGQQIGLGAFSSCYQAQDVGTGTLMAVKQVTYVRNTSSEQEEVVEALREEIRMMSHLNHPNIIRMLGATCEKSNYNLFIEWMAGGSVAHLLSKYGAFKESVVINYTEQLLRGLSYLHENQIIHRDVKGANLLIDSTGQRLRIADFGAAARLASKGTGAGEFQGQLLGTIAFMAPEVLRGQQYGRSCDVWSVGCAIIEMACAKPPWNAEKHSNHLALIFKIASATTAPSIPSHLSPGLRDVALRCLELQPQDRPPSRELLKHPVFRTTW
T25 sequence (P08922 28-2347): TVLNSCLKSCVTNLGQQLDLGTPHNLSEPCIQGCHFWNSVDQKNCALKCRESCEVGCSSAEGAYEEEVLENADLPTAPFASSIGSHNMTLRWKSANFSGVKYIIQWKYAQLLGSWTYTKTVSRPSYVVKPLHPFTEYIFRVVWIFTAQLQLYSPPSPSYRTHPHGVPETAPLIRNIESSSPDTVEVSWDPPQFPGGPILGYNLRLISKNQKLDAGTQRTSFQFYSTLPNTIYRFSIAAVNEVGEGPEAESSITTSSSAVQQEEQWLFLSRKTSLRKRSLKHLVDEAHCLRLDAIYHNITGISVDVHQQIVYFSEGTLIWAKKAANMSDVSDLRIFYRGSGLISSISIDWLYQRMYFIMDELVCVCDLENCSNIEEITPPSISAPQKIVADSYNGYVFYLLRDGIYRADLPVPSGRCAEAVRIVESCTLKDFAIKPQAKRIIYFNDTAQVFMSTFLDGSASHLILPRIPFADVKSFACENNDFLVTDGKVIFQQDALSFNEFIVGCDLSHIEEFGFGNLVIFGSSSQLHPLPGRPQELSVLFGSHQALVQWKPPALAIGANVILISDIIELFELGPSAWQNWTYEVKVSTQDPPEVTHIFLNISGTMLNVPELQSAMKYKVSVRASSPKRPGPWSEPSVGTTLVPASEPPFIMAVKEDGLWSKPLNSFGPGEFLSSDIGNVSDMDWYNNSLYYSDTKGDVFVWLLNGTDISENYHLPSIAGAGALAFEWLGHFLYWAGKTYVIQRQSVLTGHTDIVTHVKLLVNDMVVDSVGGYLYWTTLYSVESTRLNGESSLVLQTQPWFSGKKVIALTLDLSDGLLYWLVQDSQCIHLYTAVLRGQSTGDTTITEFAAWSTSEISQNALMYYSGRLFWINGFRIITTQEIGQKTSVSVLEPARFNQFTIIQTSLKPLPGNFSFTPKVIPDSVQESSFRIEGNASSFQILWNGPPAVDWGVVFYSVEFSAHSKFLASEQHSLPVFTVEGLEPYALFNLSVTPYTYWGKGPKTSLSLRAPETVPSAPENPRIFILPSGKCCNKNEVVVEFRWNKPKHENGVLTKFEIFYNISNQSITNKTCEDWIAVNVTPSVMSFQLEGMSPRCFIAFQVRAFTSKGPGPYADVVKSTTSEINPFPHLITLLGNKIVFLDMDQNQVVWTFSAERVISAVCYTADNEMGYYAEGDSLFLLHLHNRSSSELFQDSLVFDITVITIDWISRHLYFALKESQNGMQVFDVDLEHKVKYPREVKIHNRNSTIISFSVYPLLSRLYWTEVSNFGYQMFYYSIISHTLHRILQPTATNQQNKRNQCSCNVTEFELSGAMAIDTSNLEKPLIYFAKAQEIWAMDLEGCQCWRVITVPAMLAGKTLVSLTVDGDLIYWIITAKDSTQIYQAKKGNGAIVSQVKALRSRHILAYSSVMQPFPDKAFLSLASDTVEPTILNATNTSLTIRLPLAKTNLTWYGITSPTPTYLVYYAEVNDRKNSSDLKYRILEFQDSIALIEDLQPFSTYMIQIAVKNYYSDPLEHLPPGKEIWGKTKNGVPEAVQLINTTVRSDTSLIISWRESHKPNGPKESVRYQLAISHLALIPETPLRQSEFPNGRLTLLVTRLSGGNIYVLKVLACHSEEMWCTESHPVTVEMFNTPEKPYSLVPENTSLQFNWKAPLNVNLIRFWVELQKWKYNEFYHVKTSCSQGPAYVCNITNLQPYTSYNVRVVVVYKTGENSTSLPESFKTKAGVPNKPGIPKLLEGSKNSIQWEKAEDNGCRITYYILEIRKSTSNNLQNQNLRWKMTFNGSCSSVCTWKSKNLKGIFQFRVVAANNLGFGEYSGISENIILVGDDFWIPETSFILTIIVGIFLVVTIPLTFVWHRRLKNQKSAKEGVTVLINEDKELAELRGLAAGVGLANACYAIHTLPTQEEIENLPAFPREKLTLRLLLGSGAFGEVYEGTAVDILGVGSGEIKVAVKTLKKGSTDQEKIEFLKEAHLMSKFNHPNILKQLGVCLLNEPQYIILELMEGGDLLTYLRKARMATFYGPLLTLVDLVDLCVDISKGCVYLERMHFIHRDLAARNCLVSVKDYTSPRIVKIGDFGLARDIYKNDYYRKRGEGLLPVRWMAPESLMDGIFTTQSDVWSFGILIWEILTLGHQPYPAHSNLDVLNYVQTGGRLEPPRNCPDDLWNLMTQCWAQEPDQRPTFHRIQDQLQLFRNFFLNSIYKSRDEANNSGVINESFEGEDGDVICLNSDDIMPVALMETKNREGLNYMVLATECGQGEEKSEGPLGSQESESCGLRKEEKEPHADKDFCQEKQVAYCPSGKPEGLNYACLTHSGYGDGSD

Compound | % binding compared to no inhibitor control [1] | % binding compared to no inhibitor control [2] | % binding compared to no inhibitor control [3] | % binding compared to no inhibitor control [4] | % binding compared to no inhibitor control [5] | % binding compared to no inhibitor control [6] | % binding compared to no inhibitor control [7] | % binding compared to no inhibitor control [8] | % binding compared to no inhibitor control [9] | % binding compared to no inhibitor control [10] | % binding compared to no inhibitor control [11] | % binding compared to no inhibitor control [12] | % binding compared to no inhibitor control [13] | % binding compared to no inhibitor control [14] | % binding compared to no inhibitor control [15] | % binding compared to no inhibitor control [16] | % binding compared to no inhibitor control [17] | % binding compared to no inhibitor control [18] | % binding compared to no inhibitor control [19] | % binding compared to no inhibitor control [20] | other results
COc1ccccc1Nc1nc(-c2ccc(OC)c(OC)c2)cc2nccn12 [BAY derivative 6] | 100% | 95% | 100% | 42% | 100% | 100% | 83% | 100% | 89% | 100% | 88% | 82% | 100% | 100% | 100% | 100% | 76% | 100% | 100% | 82% | % binding compared to no inhibitor control [21]: 100%; % binding compared to no inhibitor control [22]: 100%; % binding compared to no inhibitor control [23]: 100%; % binding compared to no inhibitor control [24]: 100%; % binding compared to no inhibitor control [25]: 36%; % binding compared to no inhibitor control [26]: 97%; % binding compared to no inhibitor control [27]: 100%; % binding compared to no inhibitor control [28]: 100%; % binding compared to no inhibitor control [29]: 99%; % binding compared to no inhibitor control [30]: 100%; % binding compared to no inhibitor control [31]: 100%; % binding compared to no inhibitor control [32]: 100%; cooperation with / sensitization to AZ-628 (cell viability) [33]: lost its ability to cooperate with AZ-628; ability to competitively inhibit active site (ATP) binding across the kinase panel [34]: failed to effectively inhibit ATP binding by the majority of kinases
COc1ccc(-c2cc3nccn3c(Nc3ncccc3C(N)=O)n2)cc1OC.Cl.Cl [BAY61-3606, 2-[7-(3,4-dimethoxyphenyl)-imidazo [1,2-c]pyrimidin-5-ylamino] nicotinamide dihydrochloride, reference compound] | 83% | 95% | 100% | 51% | 66% | 93% | 100% | 100% | 98% | 100% | 55% | 97% | 80% | 63% | 90% | 100% | 80% | 79% | 87% | 81% | % binding compared to no inhibitor control [21]: 98%; % binding compared to no inhibitor control [22]: 35%; % binding compared to no inhibitor control [23]: 58%; % binding compared to no inhibitor control [24]: 88%; % binding compared to no inhibitor control [25]: 45%; % binding compared to no inhibitor control [26]: 65%; % binding compared to no inhibitor control [27]: 47%; % binding compared to no inhibitor control [28]: 90%; % binding compared to no inhibitor control [29]: 99%; % binding compared to no inhibitor control [30]: 94%; % binding compared to no inhibitor control [31]: 100%; % binding compared to no inhibitor control [32]: 77%; sensitization to AZ-628 (cell viability) ([33]; HKe-3 cells with MAP4K2 knockdown, 1 µM + 1 µM AZ-628): no longer sensitizes; cooperation with / sensitization to AZ-628 (cell viability) [33]: became sensitive; number of kinases with binding inhibited by greater than 90% ([34]; panel of 402 kinases): 15 kinases
